{"source": "ChEMBL document CHEMBL4364251", "about": "“Design, synthesis and biological evaluation of new quinoline derivatives as potential antitumor agents” (Eur J Med Chem, 2019)", "key": {"[1]": {"tested_on": "HCT-116", "assay": "Induction of apoptosis in human HCT116 cells assessed as necrotic cells at 4 uM incubated for 24 hrs in presence of pan-caspase inhibitor z-VAD-FMK by annexin-V-FITC/PI staining based FACS analysis (reference value: 0.6%)", "assay_type": "functional"}, "[2]": {"tested_on": "HCT-116", "assay": "Induction of apoptosis in human HCT116 cells assessed as viable cells at 8 uM incubated for 24 hrs by annexin-V-FITC/PI staining based FACS analysis (reference value: 94.35 to 94.43%)", "assay_type": "functional", "details": "HCT-116, 24 h, read-out: Activity"}, "[3]": {"tested_on": "RKO", "assay": "Growth inhibition of human RKO cells incubated for 24 hrs by CCK-8 assay", "assay_type": "functional, cell-based"}, "[4]": {"tested_on": "A549", "assay": "Antiproliferative activity against human A549 cells incubated for 48 hrs by MTT assay", "assay_type": "functional, cell-based", "details": "A549, 48 h"}, "[5]": {"tested_on": "HCT-116", "assay": "Growth inhibition of human HCT116 cells incubated for 24 hrs by CCK-8 assay", "assay_type": "functional, cell-based"}, "[6]": {"tested_on": "RKO", "assay": "Inhibition of colony formation in human RKO cells incubated for 24 hrs followed by compound washout and subsequent incubation for 10 to 14 days by crystal violet staining based assay", "assay_type": "functional, cell-based"}, "[7]": {"tested_on": "HCT-116", "assay": "Induction of apoptosis in human HCT116 cells assessed as early apoptotic cells at 4 uM incubated for 24 hrs by annexin-V-FITC/PI staining based FACS analysis (reference value: 1.77 to 3.38%)", "assay_type": "functional"}, "[8]": {"tested_on": "HCT-116", "assay": "Induction of apoptosis in human HCT116 cells assessed as necrotic cells at 8 uM incubated for 24 hrs in presence of pan-caspase inhibitor z-VAD-FMK by annexin-V-FITC/PI staining based FACS analysis (reference value: 0.6%)", "assay_type": "functional"}, "[9]": {"tested_on": "HCT-116", "assay": "Induction of apoptosis in human HCT116 cells assessed as late apoptotic cells incubated for 24 hrs by annexin-V-FITC/PI staining based FACS analysis", "assay_type": "functional, cell-based"}, "[10]": {"tested_on": "HCT-116", "assay": "Induction of apoptosis in human HCT116 cells assessed as increase in cleaved PARP protein expression level at 4 to 8 uM incubated for 24 hrs by Western blot analysis", "assay_type": "functional, cell-based"}, "[11]": {"tested_on": "HCT-116", "assay": "Induction of autophagy in human HCT116 cells assessed as increase in LC3B-2 protein expression level incubated for 24 hrs by Western blot analysis", "assay_type": "functional, cell-based"}, "[12]": {"tested_on": "HCT-116", "assay": "Induction of autophagy in human HCT116 cells expressed with LC3B-EGFP-mCheery assessed as LC3 assembly on membrane of autophagosome incubated for 24 hrs by DAPI staining based confocal microscopic method", "assay_type": "functional, cell-based"}, "[13]": {"tested_on": "HCT-116", "assay": "Induction of autophagy in human HCT116 cells assessed as decrease in ATG5 protein expression level incubated for 24 hrs by Western blot analysis", "assay_type": "functional, cell-based"}, "[14]": {"tested_on": "HCT-116", "assay": "Antiproliferative activity against human HCT116 cells expressing ATG5(-/-) assessed as cell viability incubated for 24 hrs by CCK8 assay", "assay_type": "functional, cell-based"}, "[15]": {"tested_on": "HCT-116", "assay": "Induction of autophagy in human HCT116 cells deficient in ATG5 assessed as increase in LC3B-2 protein expression level at 4 to 8 uM by Western blot analysis", "assay_type": "functional, cell-based"}, "[16]": {"tested_on": "HCT-116", "assay": "Induction of apoptosis in human HCT116 cells deficient in ATG7 assessed as late apoptotic cells at 8 uM incubated for 24 hrs by annexin-V-FITC/PI staining based FACS analysis (Rvb =6.56%)", "assay_type": "functional"}, "[17]": {"tested_on": "HCT-116", "assay": "Growth inhibition of human HCT116 cells at 1 uM by CCK-8 assay", "assay_type": "functional, cell-based", "details": "TDE = time-dependent effect"}}, "note": "Activity calls are given as the source filed them. The rule behind the calls is not given here."}
{"compound": "COc1cccc(Nc2ccnc3cc(OCCCc4ccccc4)ccc23)c1", "values": [{"measurement": "Activity", "setting": "[1]", "result": 1.3, "unit": "%"}, {"measurement": "viability at 8 µM", "setting": "[2]", "result": "60.5 to 62.2", "unit": "%"}, {"measurement": "growth inhibition (GI)", "setting": "[3]", "result": "Dose-dependent effect"}, {"measurement": "IC50", "setting": "[4]", "result": 8.22, "unit": "µM"}, {"measurement": "growth inhibition (GI)", "setting": "[5]", "result": "Dose-dependent effect"}, {"measurement": "inhibition", "setting": "[6]", "result": "Dose-dependent effect"}, {"measurement": "Activity", "setting": "[7]", "result": 11.97, "unit": "%"}, {"measurement": "Activity", "setting": "[8]", "result": 1.71, "unit": "%"}, {"measurement": "Activity", "setting": "[9]", "result": "Dose-dependent effect"}, {"measurement": "Activity", "setting": "[10]", "result": "Active"}, {"measurement": "Activity", "setting": "[11]", "result": "Dose-dependent effect"}, {"measurement": "Activity", "setting": "[12]", "result": "Dose-dependent effect"}, {"measurement": "Activity", "setting": "[13]", "result": "Dose-dependent effect"}, {"measurement": "Activity", "setting": "[14]", "result": "inactive"}, {"measurement": "Activity", "setting": "[15]", "result": "inactive"}, {"measurement": "Activity", "setting": "[16]", "result": 11.04, "unit": "%"}, {"measurement": "growth inhibition (GI)", "setting": "[17]", "result": "Tde"}]}
